Calls of active or inactive are those of the source. The rule behind the calls is not given here.
Legend:
SCC-15 [1] = experiment: Induction of intracellular ROS generation in human SCC-15 cells incubated for 24 to 48 hrs by DCFH-DA staining based immunofluorescence analysis; type: functional, cell-based; conditions: dose 0.001-100 µM, time 24-48 hrs
Leukemic tumor cell line = experiment: Cytotoxicity against human Leukemic tumor cell line assessed as inhibition of cell growth measured at 72 hrs; type: functional, cell-based
SCC-15 [2] = experiment: Induction of intracellular ROS generation in human SCC-15 cells at 0.001 to 10 uM incubated for 24 hrs by DCFH-DA staining based immunofluorescence analysis; type: functional, cell-based; conditions: dose 0.001-10 µM
[3] = Upregulation of Caspase-3 activity in human SCC-15 cells at 100 uM measured after 24 hrs in presence of Ac-DEVD-AMC by fluorescence microplate reader analysis; type: functional
SCC-15 [4] = experiment: Cytotoxicity against human SCC-15 cells assessed as LDH release at 1 to 100 uM incubated for 24 hrs relative to control; type: functional; conditions: dose 1-100 µM
SCC-15 [5] = experiment: Induction of intracellular ROS generation in human SCC-15 cells at 0.001 to 100 uM by DCFH-DA staining based immunofluorescence analysis; type: functional, cell-based; conditions: dose 0.001-100 µM, time 24-48 hrs, TDE = time-dependent effect
BALB/3T3 = experiment: Cytotoxicity against mouse BALB/3T3 cells assessed reduction in cellular metabolic activity at 0.1 to 100 uM incubated for 24 to 72 hrs by MTT assay; type: toxicity, cell-based; conditions: balb/3t3, 100 µM, dose lower 0.1 µM, time lower 24 hrs, dose upper 100 µM, time upper 72 hrs
[6] = Downregulation of AHR expression in PPARgamma-silenced human SCC-15 cells at 1 uM incubated for 48 hrs Western blot analysis relative to SiRNA control; type: functional
Glioblastoma cell line = experiment: Cytotoxicity against human Glioblastoma cell line assessed as inhibition of cell growth measured at 72 hrs; type: functional, cell-based
[7] = Upregulation of AHR expression in PPARgamma-silenced human SCC-15 cells at 1 uM incubated for 48 hrs Western blot analysis relative to control; type: functional
SCC-15 [8] = experiment: Cytotoxicity against human SCC-15 cells assessed as decrease in cellular metabolic activity at 10 to 100 uM incubated for 48 hrs by resazurin reduction assay relative to control; type: functional; set-up: scale not given: the % may be the effect or the level left; conditions: dose 10-100 µM
[9] = Downregulation of PPARgamma mRNA expression in PPARgamma-silenced human SCC-15 cells at 1 uM measured after 24 hrs by RT-PCR analysis; type: functional
Colon carcinoma cell = experiment: Cytotoxicity against human Colon carcinoma cell assessed as inhibition of cell growth measured at 72 hrs; type: functional, cell-based
HaCaT = experiment: Cytotoxicity against human HaCaT cells assessed reduction in cellular metabolic activity at 0.1 to 100 uM incubated for 24 to 72 hrs by MTT assay; type: toxicity, cell-based; conditions: dose lower 0.1 µM, time lower 24 hrs, dose upper 100 µM, time upper 72 hrs
[10] = Upregulation of NRFL2 mRNA expression in PPARgamma knockdown human SCC-15 cells at 1 uM measured after 24 hrs by RT-PCR analysis; type: functional
[11] = Downregulation of PCNA expression in PPARgamma-silenced human SCC-15 cells at 1 uM incubated for 48 hrs Western blot analysis relative to siRNA control; type: functional
SCC-15 [12] = experiment: Induction of intracellular ROS generation in human SCC-15 cells at 0.001 to 10 uM incubated for 48 hrs by DCFH-DA staining based immunofluorescence analysis; type: functional; conditions: dose 0.001-10 µM
SCC-15 [13] = experiment: Cytotoxicity against human SCC-15 cells assessed as decrease in cellular metabolic activity incubated for 48 hrs by resazurin reduction assay; type: functional, cell-based; conditions: SCC-15, 48 h
[14] = Upregulation of PPARgamma expression in PPARgamma-silenced human SCC-15 cells at 1 uM incubated for 48 hrs Western blot analysis relative to SiRNA control; type: functional
SCC-15 [15] = experiment: Cytotoxicity against human SCC-15 cells assessed as LDH release incubated for 48 hrs; type: functional, cell-based; conditions: SCC-15, 48 h
SCC-15 [16] = experiment: Induction of intracellular ROS generation in human SCC-15 cells at 10 to 100 uM incubated for 48 hrs by DCFH-DA staining based immunofluorescence analysis; type: functional; conditions: dose 10-100 µM
Breast carcinoma cell = experiment: Cytotoxicity against human Breast carcinoma cell assessed as inhibition of cell growth measured at 72 hrs; type: functional, cell-based
SCC-15 [17] = experiment: Cytotoxicity against human SCC-15 cells assessed as LDH release incubated for 24 hrs; type: functional, cell-based; conditions: SCC-15, 24 h
[18] = Downregulation of PPARgamma expression in PPARgamma-silenced human SCC-15 cells at 1 uM incubated for 48 hrs Western blot analysis relative to control; type: functional
[19] = Upregulation of Caspase-3 activity in human SCC-15 cells at 50 uM measured after 24 hrs in presence of Ac-DEVD-AMC by fluorescence microplate reader analysis; type: functional
SCC-15 [20] = experiment: Cytotoxicity against human SCC-15 cells assessed as decrease in cellular metabolic activity incubated for 24 hrs by resazurin reduction assay; type: functional, cell-based; conditions: SCC-15, 24 h
Lung cancer cell line = experiment: Cytotoxicity against human Lung cancer cell line assessed as inhibition of cell growth measured at 72 hrs; type: functional, cell-based
[21] = Upregulation of Caspase-3 activity in human SCC-15 cells at 100 uM measured after 48 hrs in presence of Ac-DEVD-AMC by fluorescence microplate reader analysis; type: functional
[22] = Downregulation of Ki67 expression in PPARgamma-silenced human SCC-15 cells at 1 uM incubated for 48 hrs Western blot analysis relative to siRNA control; type: functional
SCC-15 [23] = experiment: Cytotoxicity against human SCC-15 cells assessed as decrease in cellular metabolic activity at 100 uM incubated for 24 hrs by resazurin reduction assay relative to control; type: functional; set-up: scale not given: the % may be the effect or the level left
[24] = Upregulation of PPARgamma expression in PPARgamma-silenced human SCC-15 cells at 1 uM incubated for 48 hrs Western blot analysis relative to control; type: functional
SCC-15 [25] = experiment: Cytotoxicity against human SCC-15 cells assessed as LDH release at 1 to 100 uM incubated for 48 hrs relative to control; type: functional; conditions: dose 1-100 µM
[26] = Downregulation of AHR mRNA expression in PPARgamma-silenced human SCC-15 cells at 1 uM measured after 24 hrs by RT-PCR analysis; type: functional
[27] = Cytotoxicity against human HaCaT cells assessed reduction in cellular metabolic activity incubated for 24 to 72 hrs by MTT assay; type: toxicity, cell-based
[28] = Downregulation of NRFL2 mRNA expression in PPARgamma-silenced human SCC-15 cells at 1 uM measured after 24 hrs by RT-PCR analysis; type: functional
SCC-15 [29] = experiment: Induction of intracellular ROS generation in human SCC-15 cells at 50 to 100 uM incubated for 24 hrs by DCFH-DA staining based immunofluorescence analysis; type: functional; conditions: dose 50-100 µM
[30] = Cytotoxicity against mouse BALB/3T3 cells assessed reduction in cellular metabolic activity incubated for 24 to 72 hrs by MTT assay; type: toxicity, cell-based
[31] = Cytotoxicity against human Cervical carcinoma cell assessed as inhibition of cell growth measured at 72 hrs; type: functional, cell-based
[32] = Downregulation of Ki67 expression in PPARgamma-silenced human SCC-15 cells at 1 uM incubated for 48 hrs Western blot analysis relative to control; type: functional
SCC-15 [33] = experiment: Cytotoxicity against human SCC-15 cells assessed as LDH release at 50 nM incubated for 48 hrs relative to control; type: functional
[34] = Cytotoxicity against mouse BALB/3T3 cells assessed reduction in cellular metabolic activity incubated for 72 hrs by MTT assay; type: toxicity, cell-based
[35] = Upregulation of Caspase-3 activity in human SCC-15 cells at 50 uM measured after 48 hrs in presence of Ac-DEVD-AMC by fluorescence microplate reader analysis; type: functional
SCC-15 [36] = experiment: Cytotoxicity against human SCC-15 cells assessed as LDH release at 100 uM incubated for 48 hrs relative to control; type: functional
SCC-15 [37] = experiment: Cytotoxicity against human SCC-15 cells assessed as LDH release at 10 uM incubated for 48 hrs relative to control; type: functional
[38] = Downregulation of PCNA expression in PPARgamma-silenced human SCC-15 cells at 1 uM incubated for 48 hrs Western blot analysis relative to control; type: functional
[39] = Cytotoxicity against human HaCaT cells assessed reduction in cellular metabolic activity incubated for 72 hrs by MTT assay; type: toxicity, cell-based
SCC-15 [40] = experiment: Cytotoxicity against human SCC-15 cells assessed as LDH release at 1 uM incubated for 48 hrs relative to control; type: functional
[41] = Downregulation of PPARgamma mRNA expression in human SCC-15 cells at 1 uM measured after 24 hrs by RT-PCR analysis (reference value: 79.68 %); type: functional
[42] = Downregulation of AHR mRNA expression in human SCC-15 cells at 1 uM measured after 24 hrs by RT-PCR analysis (reference value: 17.30 %); type: functional
[43] = Downregulation of NRFL2 mRNA expression in human SCC-15 cells at 1 uM measured after 24 hrs by RT-PCR analysis (reference value: 18.36 %); type: functional
SCC-15 [44] = experiment: Cytotoxicity against human SCC-15 cells assessed as LDH release at 50 uM incubated for 48 hrs relative to control; type: functional
SCC-15 [45] = experiment: Induction of intracellular ROS generation in human SCC-15 cells at 0.001 to 1 uM incubated for 24 to 48 hrs by DCFH-DA staining based immunofluorescence analysis; type: functional, cell-based; conditions: dose 0.001-1 µM, time 24-48 hrs
SCC-15 [46] = experiment: Induction of intracellular ROS generation in human SCC-15 cells at 50 to 100 uM incubated for 48 hrs by DCFH-DA staining based immunofluorescence analysis; type: functional; conditions: dose 50-100 µM
[47] = Downregulation of PPARgamma expression in PPARgamma-silenced human SCC-15 cells at 1 uM incubated for 48 hrs Western blot analysis relative to SiRNA control; type: functional

| SMILES | Activity (SCC-15 [1]) | Activity [3] [%] | Activity (SCC-15 [5]) | Activity (BALB/3T3) | Activity [6] [%] | Activity (SCC-15 [8]) [%] | Activity [9] [%] | Activity (HaCaT) | Activity [10] [%] | Activity [11] [%] | IC50 (SCC-15 [13]) [µM] | EC50 (SCC-15 [15]) [µM] | EC50 (SCC-15 [17]) [µM] | Activity [18] [%] | Activity [19] [%] | IC50 (SCC-15 [20]) [µM] | Activity [21] [%] | Activity [22] [%] | Activity (SCC-15 [23]) [%] | Activity [24] [%] | other results |
| --- | --- | --- | --- | --- | --- | --- | --- | --- | --- | --- | --- | --- | --- | --- | --- | --- | --- | --- | --- | --- | --- |
| O=C1CC(N2C(=O)/C(=C/C(Cl)=C/c3ccc([N+](=O)[O-])cc3)SC2=S)C(=O)N1c1ccc(Cl)cc1 (centres undefined) | Dose-Dependent Effect | 135.01 | Tde | Non-Toxic | 32.59 | 31.6 | 82.31 | Non-Toxic | 12.9 | 34.64 | 30.4 | 10.2 | 14.8 | 46.82 | 29.03 | > 100 | 55.58 | 44.91 | 34.08 | 23.81 | IC50 (Leukemic tumor cell line): 1 µM; Activity (SCC-15 [2]): inactive; Activity (SCC-15 [4]): 2%; IC50 (Glioblastoma cell line): 1 µM; Activity [7]: 17.79%; IC50 (Colon carcinoma cell): 1 µM; Activity (SCC-15 [12]): 15.81%; Activity [14]: 26.46%; Activity (SCC-15 [16]): 13.13%; IC50 (Breast carcinoma cell): 1 µM; IC50 (Lung cancer cell line): 1 µM; Activity (SCC-15 [25]): 49.3%; Activity [26]: 9.11%; IC50 [27]: > 100 µM; Activity [28]: 30.64%; Activity (SCC-15 [29]): 18.64%; IC50 [30]: > 100 µM; IC50 [31]: 1 µM; Activity [32]: 42.01% |
| O=C1CC(N2C(=O)/C(=C/C(Cl)=C/c3ccc([N+](=O)[O-])cc3)SC2=S)C(=O)N1c1ccc(Br)cc1 (centres undefined) | Dose-Dependent Effect | 121.15 | Tde | Non-Toxic | 32.23 | 24.52 | 73.1 | Non-Toxic | 17.1 | 24.94 | 39.9 | 16.9 | 15.4 | 14.43 | 42.87 | > 100 | 57.04 | 39.67 | 27.07 | 11.23 | Activity (SCC-15 [33]): 2%; IC50 at 72 h [34]: 85.2 µM; Activity [35]: 21.08%; Activity (SCC-15 [36]): 328%; Activity (SCC-15 [37]): 30%; Activity [38]: 12.74%; IC50 at 72 h [39]: 83.6 µM; Activity (SCC-15 [40]): 1.2%; Activity [41]: 12.29%; Activity [42]: 11.84%; Activity [43]: 8.55%; Activity (SCC-15 [44]): 178.4%; Activity [26]: 10.4%; IC50 [27]: > 100 µM; Activity [28]: 26.91%; IC50 [30]: > 100 µM; Activity (SCC-15 [45]): inactive; Activity (SCC-15 [46]): 12%; Activity [47]: 18.45%; Activity [32]: 17% |

Source: ChEMBL document CHEMBL5325509, “Pyrrolidinedione-thiazolidinone hybrid molecules with potent cytotoxic effect in squamous cell carcinoma SCC-15 cells” (Bioorg Med Chem, 2023)
